Source: patent publication US20220356174A1, “PYRIDIN-2-ONE COMPOUNDS USEFUL AS SMARCA2 ANTAGONISTS” (Epizyme, Inc., priority 2018, published 2022)
pIC50: −log10 of the molar value. Where two headings read alike, the source gives them in different places.

Columns and labels:
[1] = target: T1, FL-SMARCA2 (full-length human SMARCA2 isoform 1) (Homo sapiens, UniProt P51531); assay: SMARCA2 ATPase activity assay (ADP-Glo, chicken mononucleosome substrate); format: biochemical; details: ATPase assay, enzyme 5 nM, ATP 250 uM, chicken mononucleosome 10 nM, 30 min preincubation
T1 construct: FLAG tag (YKDDDDK) (C); made in house; host or cells: Sf21 insect cells (baculovirus, pFastBacI)
T1 sequence (P51531 with tags, fused parts or gaps): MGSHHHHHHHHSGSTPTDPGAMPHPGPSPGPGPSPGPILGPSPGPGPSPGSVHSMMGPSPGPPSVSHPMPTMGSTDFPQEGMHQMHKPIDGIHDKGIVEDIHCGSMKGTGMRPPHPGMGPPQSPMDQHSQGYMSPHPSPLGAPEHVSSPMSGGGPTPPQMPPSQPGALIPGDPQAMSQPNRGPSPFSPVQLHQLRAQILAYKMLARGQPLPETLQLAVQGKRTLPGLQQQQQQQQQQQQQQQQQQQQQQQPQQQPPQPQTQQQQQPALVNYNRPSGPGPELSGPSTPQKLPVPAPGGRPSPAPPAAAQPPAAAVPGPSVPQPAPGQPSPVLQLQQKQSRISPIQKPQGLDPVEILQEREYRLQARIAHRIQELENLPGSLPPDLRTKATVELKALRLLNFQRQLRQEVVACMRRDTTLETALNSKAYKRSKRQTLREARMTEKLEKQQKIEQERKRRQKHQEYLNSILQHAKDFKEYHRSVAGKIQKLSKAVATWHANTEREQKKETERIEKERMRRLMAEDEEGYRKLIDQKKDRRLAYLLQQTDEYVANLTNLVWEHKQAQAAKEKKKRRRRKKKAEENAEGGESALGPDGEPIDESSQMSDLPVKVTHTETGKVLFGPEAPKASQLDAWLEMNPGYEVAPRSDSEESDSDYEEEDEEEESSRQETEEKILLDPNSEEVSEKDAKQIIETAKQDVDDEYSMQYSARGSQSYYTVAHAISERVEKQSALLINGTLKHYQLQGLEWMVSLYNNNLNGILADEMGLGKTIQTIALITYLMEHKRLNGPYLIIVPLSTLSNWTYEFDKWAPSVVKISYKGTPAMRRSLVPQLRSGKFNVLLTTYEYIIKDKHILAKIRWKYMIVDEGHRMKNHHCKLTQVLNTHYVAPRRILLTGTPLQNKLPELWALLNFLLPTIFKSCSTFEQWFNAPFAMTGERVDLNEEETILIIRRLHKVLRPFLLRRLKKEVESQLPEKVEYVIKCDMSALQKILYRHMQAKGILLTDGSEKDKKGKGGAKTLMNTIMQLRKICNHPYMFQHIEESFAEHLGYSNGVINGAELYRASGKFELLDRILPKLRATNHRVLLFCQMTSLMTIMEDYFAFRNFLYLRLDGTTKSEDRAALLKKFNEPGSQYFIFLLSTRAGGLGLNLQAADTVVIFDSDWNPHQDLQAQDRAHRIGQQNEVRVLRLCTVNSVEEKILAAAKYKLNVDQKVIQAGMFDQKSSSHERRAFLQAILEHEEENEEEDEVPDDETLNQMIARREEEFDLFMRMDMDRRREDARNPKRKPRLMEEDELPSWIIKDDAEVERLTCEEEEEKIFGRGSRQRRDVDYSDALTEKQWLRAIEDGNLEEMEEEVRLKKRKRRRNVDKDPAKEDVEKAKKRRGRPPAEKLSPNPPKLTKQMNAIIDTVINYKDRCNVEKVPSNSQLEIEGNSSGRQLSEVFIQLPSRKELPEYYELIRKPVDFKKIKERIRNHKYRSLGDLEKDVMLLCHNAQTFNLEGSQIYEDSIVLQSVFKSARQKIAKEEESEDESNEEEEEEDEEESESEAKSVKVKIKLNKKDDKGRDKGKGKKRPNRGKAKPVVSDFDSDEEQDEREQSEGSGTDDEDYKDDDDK

FL-SMARCA4 = FL-SMARCA4 (Homo sapiens, UniProt P51532); assay: SMARCA4 ATPase activity assay (ADP-Glo, chicken mononucleosome substrate)
FL-SMARCA4, sequence (P51532 whole entry): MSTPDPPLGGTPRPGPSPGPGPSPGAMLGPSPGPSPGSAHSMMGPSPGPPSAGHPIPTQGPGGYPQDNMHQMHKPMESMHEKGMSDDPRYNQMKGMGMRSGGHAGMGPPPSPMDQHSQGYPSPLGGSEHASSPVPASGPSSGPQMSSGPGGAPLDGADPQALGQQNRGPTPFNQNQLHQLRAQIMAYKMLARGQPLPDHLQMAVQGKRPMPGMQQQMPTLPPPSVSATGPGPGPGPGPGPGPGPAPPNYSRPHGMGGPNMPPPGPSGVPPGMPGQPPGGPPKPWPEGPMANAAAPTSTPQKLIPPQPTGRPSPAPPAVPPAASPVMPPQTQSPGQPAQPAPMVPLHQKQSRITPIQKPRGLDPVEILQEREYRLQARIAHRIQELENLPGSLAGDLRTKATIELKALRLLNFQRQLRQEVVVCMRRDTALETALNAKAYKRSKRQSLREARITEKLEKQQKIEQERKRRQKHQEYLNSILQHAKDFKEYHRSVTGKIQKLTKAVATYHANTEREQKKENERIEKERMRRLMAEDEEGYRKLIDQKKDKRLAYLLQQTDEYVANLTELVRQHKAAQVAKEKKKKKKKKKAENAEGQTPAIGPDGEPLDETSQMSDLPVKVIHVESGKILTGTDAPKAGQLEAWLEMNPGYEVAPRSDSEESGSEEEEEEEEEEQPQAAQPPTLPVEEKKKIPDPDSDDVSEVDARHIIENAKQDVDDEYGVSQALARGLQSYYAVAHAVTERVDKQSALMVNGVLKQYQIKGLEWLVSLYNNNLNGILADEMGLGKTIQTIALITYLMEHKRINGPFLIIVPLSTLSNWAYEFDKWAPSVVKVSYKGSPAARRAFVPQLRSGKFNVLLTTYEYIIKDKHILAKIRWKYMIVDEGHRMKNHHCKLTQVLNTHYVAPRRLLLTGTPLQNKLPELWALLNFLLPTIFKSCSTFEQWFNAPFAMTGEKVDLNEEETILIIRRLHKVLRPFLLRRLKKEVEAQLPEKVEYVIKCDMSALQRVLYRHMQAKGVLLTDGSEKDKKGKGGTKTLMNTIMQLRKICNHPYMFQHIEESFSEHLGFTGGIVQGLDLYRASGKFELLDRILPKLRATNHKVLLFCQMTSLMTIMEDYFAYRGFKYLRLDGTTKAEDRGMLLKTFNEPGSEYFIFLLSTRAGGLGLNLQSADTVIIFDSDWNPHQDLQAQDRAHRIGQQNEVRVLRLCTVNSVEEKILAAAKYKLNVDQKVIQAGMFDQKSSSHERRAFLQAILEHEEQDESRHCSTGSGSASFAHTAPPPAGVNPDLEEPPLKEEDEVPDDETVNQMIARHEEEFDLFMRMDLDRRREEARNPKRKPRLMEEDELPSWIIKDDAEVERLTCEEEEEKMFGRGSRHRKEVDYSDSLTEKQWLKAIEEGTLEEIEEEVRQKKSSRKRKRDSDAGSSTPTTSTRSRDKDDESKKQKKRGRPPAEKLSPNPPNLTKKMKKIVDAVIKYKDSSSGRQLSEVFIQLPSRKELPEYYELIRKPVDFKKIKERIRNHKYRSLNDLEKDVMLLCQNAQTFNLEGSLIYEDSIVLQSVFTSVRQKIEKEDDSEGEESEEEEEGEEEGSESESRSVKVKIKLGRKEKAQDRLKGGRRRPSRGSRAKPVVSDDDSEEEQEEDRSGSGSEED

A549 cells [2] = assay: Long term proliferation (LTP) assay, day 15 IC50 in A549 cells; format: cell-based; details: Homo sapiens, 360 h
A549 cells [3] = assay: High-throughput proliferation (HTP) assay for A549 cells (CellTiter-Glo, 7 days); format: cell-based; details: Homo sapiens, 168 h, read-out: A549 SMARCA2 IC50
Outline: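 A549 cells plated at 62.5 cells/well in F12K + 10% HI-FBS onto pre-dispensed compound, grown 7 days at 37° C., 5% CO2. Viability by CellTiter-Glo luminescence after 30 min at RT; EC50/IC50 from DMSO (0%) and 10 μM Doxorubicin (100%) inhibition controls.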

H358 cells = assay: High-throughput proliferation (HTP) assay for H358 cells (CellTiter-Glo, 7 days); format: cell-based; details: Homo sapiens, NCI-H358, 168 h, read-out: H358 SMARCA2 IC50
Outline: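 Cells were plated at 1,000 cells/well in RPMI 1640 + 10% HI-FBS + 1% pen/strep on pre-dispensed compound and incubated 7 days at 37 °C, 5% CO2. Viability was read as ATP luminescence with CellTiter-Glo after 30 min at RT. DMSO served as 0% and 10 µM doxorubicin as 100% inhibition for EC50/IC50.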

SMARCA2 = target: T2, SMARCA2 (Homo sapiens, UniProt P51531); assay: SMARCA2 FRET nucleosome remodeling activity assay; format: biochemical
T2 construct: FLAG tag (YKDDDDK) (C); made in house; host or cells: Sf21 insect cells (baculovirus, pFastBacI)
T2 sequence (P51531 with tags, fused parts or gaps): as the sequence (P51531 with tags, fused parts or gaps) above
Procedure: The SMARCA2 remodeling assay was initiated by the addition of 2 uL of a nucleosome remodeling assay substrate and ATP mixture (final volume=10 uL). […] The assays were terminated after 15 minutes by the addition of 2 uL EDTA (final concentration of 25 mM). The SMARCA2 remodeling activity was determined by measuring the fluorescence ratio of the Cy3 and Cy5 labels ([…]). The remodeling of the nucleosome substrate causes an increase in the spacing between the Cy3 and Cy5 labels and therefore a reduction in FRET and an increase in Cy3/Cy5 fluorescence ratio.

[4] = FL-SMARCA4 IC>50, Table 3c.2, ATPase assay, enzyme 5 nM, ATP 250 uM, chicken mononucleosome 10 nM, 30 min preincubation
[5] = FL-SMARCA4 IC50, Table 3.2, ATPase assay, enzyme 5 nM, ATP 250 uM, chicken mononucleosome 10 nM, 30 min preincubation

Row | Structure (SMILES) | pIC50 ([1]; Table 3d.1, read-out: FL-SMARCA2 IC>50) | pIC50 (FL-SMARCA4; FL-SMARCA4 IC50) | pIC50 (A549 cells [2]) | pIC50 ([1]; Table 3.1) | pIC50 (A549 cells [3]) | pIC50 ([1]; Table 3c.1) | pIC50 (FL-SMARCA4; [4]) | pIC50 (H358 cells) | pIC50 (FL-SMARCA4; [5]) | pIC50 (SMARCA2)
1 | CCn1cc(NC(=O)c2cc(Cl)c(Cl)s2)ncc1=O [Compound 18d] | < 4.30 | < 4.30 | ≤ 4.52 | – | – | – | – | – | – | –
2 | CCn1cc(NC(=O)c2cc(Cl)c(Cl)s2)ccc1=O [Compound 43] | – | – | 4.82 | 5.90 | – | – | – | – | – | –
3 | Cn1c(C(=O)Nc2ccc(=O)n(-c3ccccc3)c2)cc(Cl)c1Cl [Compound 47] | – | – | ≤ 4.52 | < 4.30 | – | – | – | – | – | –
4 | Cc1ncc(C#Cc2cc(C(=O)Nc3cc(F)c(=O)n(CC(F)F)c3)sc2Cl)o1 [Compound 62c] | – | – | 7.05 | – | 6.26 | 8.09 | 7.57 | < 5.00 | – | –
5 | Cc1cc(C#Cc2cc(C(=O)Nc3cc(F)c(=O)n(CC(F)F)c3)sc2Cl)sn1 [Compound 64c] | – | – | 7.06 | – | 6.43 | 8.06 | 7.53 | < 5.00 | – | –
6 | O=C(Nc1ccc(=O)n(CCF)c1)c1cc(Cl)c(Cl)s1 [Compound 80] | – | – | 5.20 | 6.68 | 4.94 | – | – | – | 6.12 | –
7 | N#Cc1sc(C(=O)Nc2cc(F)c(=O)n(CC(F)F)c2)cc1C(F)(F)F [Compound 96c] | – | – | ≤ 5.00 | – | < 5.00 | 4.98 | 4.53 | < 5.00 | – | –
8 | O=C(Nc1cc(Cl)c(=O)n(CCF)c1)c1cc(Cl)c(Cl)s1 [Compound 101] | – | – | 6.45 | 7.13 | 5.64 | – | – | – | 6.62 | 6.50
9 | N#Cc1sc(C(=O)Nc2cc(Cl)c(=O)n(CCF)c2)cc1Cl [Compound 125, 4-Chloro-N-(5-chloro-1-(2-fluoroethyl)-6-oxo-1,6-dihydropyridin-3-yl)-5-cyanothiophene-2-carboxamide] | – | – | 6.32 | 7.51 | 5.94 | – | – | – | 6.97 | 7.18
10 | O=C(Nc1cc(F)c(=O)n(CCF)c1)c1cc(Cl)c(Cl)s1 [Compound 129] | – | – | – | 7.29 | 6.04 | – | – | – | 6.71 | 6.94
11 | N#Cc1ncc(C(=O)Nc2cc(F)c(=O)n(CCF)c2)s1 [Compound 138] | – | – | ≤ 4.70 | 8.19 | ≤ 4.70 | – | – | – | 7.79 | 7.85
12 | N#Cc1sc(C(=O)Nc2cc(F)c(=O)n(CC(F)(F)F)c2)cc1Cl [Compound 140] | – | – | – | 7.33 | 5.90 | – | – | – | 6.83 | 7.05
13 | O=C(Nc1cc(F)c(=O)n(CCF)c1)c1cnc(Cl)s1 [Compound 142] | – | – | 6.27 | 7.32 | 5.87 | – | – | – | 6.79 | 7.22
14 | Cn1c(C(=O)Nc2cc(F)c(=O)n(CC(F)(F)F)c2)cc(Cl)c1Cl [Compound 144] | – | – | – | 6.61 | – | – | – | – | 5.93 | 5.90
15 | O=C(Nc1ccc(=O)n(CC(F)(F)F)c1)c1cc(Cl)n[nH]1 [Compound 145] | – | – | – | 5.52 | – | – | – | – | 4.92 | 5.30
16 | CCn1cc(NC(=O)c2cc(Cl)n[nH]2)cc(Cl)c1=O [Compound 146] | – | – | – | 5.99 | – | – | – | – | 5.45 | 5.59
17 | N#Cc1ncc(C(=O)Nc2cc(Cl)c(=O)n(CCF)c2)s1 [Compound 148] | – | – | – | 7.90 | ≤ 4.70 | – | – | – | – | 7.65

Row | Structure (SMILES) | pIC50 ([1]; Table 3d.1, read-out: FL-SMARCA2 IC>50) | pIC50 (FL-SMARCA4; FL-SMARCA4 IC50) | pIC50 (A549 cells [2]) | pIC50 ([1]; Table 3.1) | pIC50 (A549 cells [3]) | pIC50 ([1]; Table 3c.1) | pIC50 (FL-SMARCA4; [4]) | pIC50 (H358 cells) | pIC50 (FL-SMARCA4; [5]) | pIC50 (SMARCA2)
18 | CCn1cc(NC(=O)c2cnc(C#N)s2)cc(F)c1=O [Compound 150] | – | – | – | 7.57 | – | – | – | – | 7.02 | 7.66
19 | N#Cc1ncc(C(=O)Nc2cc(F)c(=O)n(CC(F)(F)F)c2)s1 [Compound 151, 2-Cyano-N-(5-fluoro-6-oxo-1-(2,2,2-trifluoroethyl)-1,6-dihydropyridin-3-yl)thiazole-5-carboxamide] | – | – | – | 7.69 | – | – | – | – | 7.17 | 7.54
20 | N#Cc1cc(C(=O)Nc2cc(F)c(=O)n(CCF)c2)[nH]n1 [Compound 176] | – | – | ≤ 4.70 | 7.26 | ≤ 4.70 | – | – | – | 6.57 | 7.09
21 | CCn1cc(NC(=O)c2cc(C#N)c(C#N)s2)cc(F)c1=O [Compound 188] | – | – | 5.00 | 7.52 | 4.74 | – | – | – | 6.93 | 7.65
22 | N#Cc1cc(C(=O)Nc2cc(F)c(=O)n(CCF)c2)sc1C#N [Compound 189] | – | – | – | 8.04 | 5.01 | – | – | – | 7.47 | 7.63
23 | N#Cc1cc(C(=O)Nc2cc(F)c(=O)n(CC(F)(F)F)c2)sc1C#N [Compound 190] | – | – | 5.41 | 7.70 | 4.92 | – | – | – | 7.07 | 7.46
24 | N#Cc1cc(C(=O)Nc2cc(F)c(=O)n(CCF)c2)sc1Cl [Compound 196] | – | – | – | 7.42 | 6.22 | – | – | – | 6.74 | 7.74
25 | O=C(Nc1cc(F)c(=O)n(CCF)c1)c1cc(F)c(F)s1 [Compound 259] | – | – | 6.75 | 7.29 | 5.61 | – | – | – | 6.64 | –
26 | N#Cc1ncc(C(=O)Nc2cc(F)c(=O)n(CC(F)(F)F)c2)o1 [Compound 267] | – | – | ≤ 5.00 | < 4.30 | – | – | – | – | < 4.30 | –
27 | N#Cc1sc(C(=O)Nc2cc(F)c(=O)n(CC(F)F)c2)cc1Cl [Compound 285] | – | – | – | 7.57 | 6.03 | – | – | – | 7.06 | 8.04
28 | O=C(Nc1cc(F)c(=O)n(CCF)c1)c1cc(Cl)c(C(F)F)s1 [Compound 290] | – | – | – | 6.87 | – | – | – | – | 6.17 | 6.39
29 | O=C(Nc1cc(F)c(=O)n(CCF)c1)c1cnc(C(F)F)s1 [Compound 295] | – | – | – | 6.76 | – | – | – | – | 6.13 | 6.30
30 | O=C(Nc1cc(F)c(=O)n(CC(F)F)c1)c1cc(F)c(Cl)s1 [Compound 323] | – | – | 6.97 | 7.72 | 6.50 | – | – | – | 7.17 | –
31 | O=C(Nc1cc(F)c(=O)n(CCF)c1)c1cc(F)c(C(F)F)s1 [Compound 324] | – | – | 6.55 | 7.46 | – | – | – | – | 6.86 | –
32 | O=C(Nc1cc(F)c(=O)n(CC(F)F)c1)c1cc(F)c(C(F)F)s1 [Compound 325] | – | – | 6.51 | 7.45 | – | – | – | – | 6.79 | –
33 | O=C(Nc1cc(F)c(=O)n(CC(F)F)c1)c1cc(C#Cc2ccncc2)c(Cl)s1 [Compound 345] | – | – | 7.24 | 7.78 | 6.45 | – | – | < 5.00 | 7.42 | –
